Results as given in patent US20090239939A1, “Combinations for introducing nucleic acids into cells” (priority 1999, published 2009).

Legend:
human erythrocytes = assay: Erythrocyte lysis assay; assay type: cell-based; conditions: 37° C., 1 h, citrate pH 5 versus HBS, FIG. 5
Experimental: The assay serves the examination of the ability of peptides to lyse natural membranes in a pH-dependent manner.
The erythrocytes used in this assay were obtained as follows: 10 ml of fresh blood were taken from volunteers and diluted immediately into 10 ml of Alsever's solution (Whaley 1985; Plank et al., 1996). Aliquots of 3 ml each were washed 3 times with the corresponding buffer (40 ml each of citrate or HBS; after addition of buffer, shaking, centrifugation at 2500×g and discarding of the supernatant). The concentration of the erythrocytes was determined with an “extinction coefficient” of 2.394×10^−8 ml/cells at 541 nm. For deriving the extinction coefficient, the cell count in an aliquot was determined using a Neubauer chamber followed by measuring the absorbance of this solution at 541 nm upon addition of 1 μl 1% Triton X-100.
Aliquots of INF7 and copolymer-coupled INF7 (P3INF7), respectively, were provided in column 1 of a 96-well plate in 150 μl 10 mM sodium citrate pH 5/150 mM NaCl and in HBS buffer, respectively (usually corresponding to […] peptide). […] Then, the plates were centrifuged at 2500×g, 150 μl each of the supernatant was transferred into a flat bottom 96-well plate and released hemoglobin was determined at 410 nm using an ELISA plate reader. […] 0% lysis was determined from untreated samples in column 12.

complement system = assay: Complement activation assay (CH50)

Q: Which results are given for GLFEAIEGFIENGWEGMIDGWYGC [INF7]?
A: erythrocyte lysis activity (human erythrocytes): strong pH-dependent activity; complement activation when incorporated in a polylysine-DNA complex (complement system; FIG. 4B): this complement activation disappears; complement activation (CH50 as percentage of CH50max) (complement system; substance itself incubated with human serum, FIG. 4): weak activator of complement
